PubChem BioAssay AID1919005 (Molecular Pharmacology Branch, DTP, NCI, 2023)

System: 855422-203-R-J1-PDC complex spheroid growth
Assay: Anticancer human tumor 855422-203-R-J1-PDC patient-derived bladder carcinoma cell line growth inhibition [AhR]
Details: for IC50: curve of first compound; for viability, T/C: stronger effect = lower value; active = viability on the fitted dose curve at most 10% of control; inactive = the rest
Source text: Multicellular complex tumor spheroid response to aryl hydrocarbon receptor antagonists in combination with a variety of drugs and investigational agents in selected tumor cell lines
The current study was undertaken to assess response to aryl hydrocarbon receptor antagonists in combination with standard-of-care drugs and investigational agents in solid tumor complex spheroid models. Complex spheroids include a stromal component modeled by human endothelial cells (HUVEC) and fibroblasts modeled by human mesenchymal stem cells (MSCs). The concentration ranges selected for each drug and investigational agent were based upon clinically achievable concentrations if the clinical Cmax of the agent was known.
Compounds. The drugs and investigational agents: BAY 2416964 (NSC825713), GNF351 (NSC835774), CH-223191 (NSC835775), CPI-455 (NSC825282), aza-TdCyd (NSC777586), decitabine (NSC127716), belinostat (NSC758774), entinostat (NSC756642), pevonedistat (NSC761192), tazemetostat (NSC777109), talazoparib (NSC765396), olaparib (NSC753686), selinexor (NSC780203), nedisertib (M3814, NSC802822), bortezomib (NSC756655), venetoclax (NSC766270), doxorubicin (NSC123127), elimusertib (BAY189344, NSC800525), ceralasertib (AZD6738, NSC777638), TAK-243 (NSC785004), alisertib (NSC759677), etoposide (NSC141540), topotecan (NSC609699), eribulin (NSC707389), gemcitabine (NSC613327), carboplatin (NSC241240), cisplatin (NSC119875), and SN-38 (NSC673596) were obtained from the National Cancer Institute (NCI) Developmental Therapeutics Program Chemical Repository (32). The FDA-approved anticancer drug set is available from the Developmental Therapeutics Program at https://dtp.cancer.gov/organization/dscb/obtaining/available plates.htm. […] The stock solutions were prepared in dimethyl sulfoxide (DMSO, Sigma-Aldrich, St. Louis, MO, cat. D2650), except for the platinum compounds which were prepared in saline (Quality Biological, Gaithersburg, MD, cat. 114-055-101), at 800-fold the tested concentration and stored at -70 degrees C prior to their use. All drugs and investigational agents were tested over a range starting from a high concentration at or near the clinical Cmax and decreasing in half-log increments. If the clinical Cmax for an agent had not been determined, the highest concentration tested was 10 microM (Table 1).
Cell Culture. All cells were maintained in an incubator at 37 degrees C and 5% CO2 with 95% humidity. The PDC lines were cultured according to standard operating procedures established by the NCI PDMR (https://pdmr.cancer.gov). Briefly, all PDCs were thawed and cultured in Matrigel-coated flasks prepared with a working solution of 1X Ham's F-12 nutrient mix, without supplementation (Invitrogen, Waltham, MA, cat. 11765054), 100 U/mL penicillin-streptomycin (Invitrogen, cat. 15140122), and 2.5% Matrigel (Corning Inc., Corning, NY, cat. 354248) for the first three passages. All PDCs were cultured in complete DMEM/F-12 media containing advanced DMEM/F-12 (Invitrogen, cat. 12634028), 4.9% defined fetal bovine serum, heat inactivated (HyClone Laboratories Inc., Logan, UT, cat. SH30070.03HI), 389 ng/mL hydrocortisone (Sigma-Aldrich, cat. H4001), 9.7 ng/mL human EGF recombinant protein (Invitrogen, cat. PHG0313), 23.4 microg/mL adenine (Sigma-Aldrich, cat. A2786), 97.3 U/mL penicillin-streptomycin (Invitrogen, cat. 15140122), 1.9 mM L-glutamine (Invitrogen, cat. 25030081), and 9.7 microM Y-27632 dihydrochloride (Tocris Bioscience, Bristol, United Kingdom, cat. 1254). The PDCs were cultured in complete DMEM/F12 media without 10 microM Y-27632 dihydrochloride for at least two passages prior to the screen. The established cell lines NCI-H1341 and […] were cultured in DMEM/F-12, HEPES (Invitrogen, cat. 11330032), 5% defined fetal bovine serum (HyClone Laboratories Inc., cat. SH30070.03), ITS premix universal culture supplement [insulin (5 microg/mL), transferrin (5 microg/mL), and selenious acid (5 ng/mL)] […]

[1] = second compound 0.1 µM, first compound 0.0316 µM
[2] = second compound 0.1 µM, first compound 0.1 µM
[3] = second compound 0.1 µM, first compound 0.316 µM
[4] = second compound 0.1 µM, first compound 1 µM
[5] = second compound 0.1 µM, first compound 3.16 µM
[6] = second compound 0.1 µM, first compound 10 µM
[7] = second compound 0.316 µM, first compound 0.0316 µM
[8] = second compound 0.316 µM, first compound 0.1 µM
[9] = second compound 0.316 µM, first compound 0.316 µM
[10] = second compound 0.316 µM, first compound 1 µM
[11] = second compound 0.316 µM, first compound 3.16 µM
[12] = second compound 0.316 µM, first compound 10 µM
[13] = second compound 1 µM, first compound 0.0316 µM
[14] = second compound 1 µM, first compound 0.1 µM
[15] = second compound 1 µM, first compound 0.316 µM
[16] = second compound 1 µM, first compound 1 µM
[17] = second compound 1 µM, first compound 3.16 µM
[18] = second compound 1 µM, first compound 10 µM
[19] = second compound 3.16 µM, first compound 0.0316 µM
[20] = second compound 3.16 µM, first compound 0.1 µM
[21] = second compound 3.16 µM, first compound 0.316 µM
[22] = second compound 3.16 µM, first compound 1 µM
[23] = second compound 3.16 µM, first compound 3.16 µM
[24] = second compound 3.16 µM, first compound 10 µM
[25] = second compound 10 µM, first compound 0.0316 µM
[26] = second compound 10 µM, first compound 0.1 µM
[27] = second compound 10 µM, first compound 0.316 µM
[28] = second compound 10 µM, first compound 1 µM
[29] = second compound 10 µM, first compound 3.16 µM
[30] = second compound 10 µM, first compound 10 µM
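Also: spheroids exposed to agents for seven days before readout.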
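For viability, T/C in this document: percent of DMSO vehicle control luminescence viability.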

COc1ccc([C@@H](O)c2cc(-c3ncnc4cc(N5CCOCC5)ccc34)c(F)cc2Cl)nn1 + Cc1cncc(-c2nc(NCCc3c[nH]c4ccccc34)c3ncn(C(C)C)c3n2)c1
inactive: viability, T/C [1] 101% | viability, T/C [2] 90.6% | viability, T/C [3] 93.7% | viability, T/C [4] 83.8% | viability, T/C [5] 76.7% | viability, T/C [6] 50.9% | viability, T/C [7] 97.1% | viability, T/C [8] 88.6% | viability, T/C [9] 77.2% | viability, T/C [10] 86.8% | viability, T/C [11] 74.5% | viability, T/C [12] 47.8% | viability, T/C [13] 90.5% | viability, T/C [14] 94.6% | viability, T/C [15] 79.9% | viability, T/C [16] 74.5% | viability, T/C [17] 69.1% | viability, T/C [18] 37.6% | viability, T/C [19] 79.5% | viability, T/C [20] 85.6% | viability, T/C [21] 67.2% | viability, T/C [22] 54.7% | viability, T/C [23] 52.6% | viability, T/C [24] 27.9%
active: viability, T/C [25] 6.06% | viability, T/C [26] 3.37% | viability, T/C [27] 1.79% | viability, T/C [28] 0.4% | viability, T/C [29] 6.5% | viability, T/C [30] 9.38%
9.44 µM: IC50 (second compound 0.316 µM)
6.09 µM: IC50 (second compound 1 µM)
2.41 µM: IC50 (second compound 3.16 µM)
> 10 µM: IC50 (second compound 0.1 µM)
< 0.0316 µM: IC50 (second compound 10 µM)

CC1COCCN1c1cc(C2(S(C)(=N)=O)CC2)nc(-c2ccnc3[nH]ccc23)n1 (stereo not given) + Cc1cncc(-c2nc(NCCc3c[nH]c4ccccc34)c3ncn(C(C)C)c3n2)c1
inactive: viability, T/C [1] 96.7% | viability, T/C [2] 88.9% | viability, T/C [3] 83.1% | viability, T/C [4] 98.6% | viability, T/C [5] 114% | viability, T/C [6] 25.1% | viability, T/C [7] 84.1% | viability, T/C [8] 81.6% | viability, T/C [9] 79.7% | viability, T/C [10] 98.3% | viability, T/C [11] 110% | viability, T/C [12] 28.4% | viability, T/C [13] 80.4% | viability, T/C [14] 81.8% | viability, T/C [15] 66.9% | viability, T/C [16] 79.1% | viability, T/C [17] 92% | viability, T/C [18] 29.5% | viability, T/C [19] 69% | viability, T/C [20] 70.7% | viability, T/C [21] 74.2% | viability, T/C [22] 48.4% | viability, T/C [23] 44.6% | viability, T/C [24] 17.9% | viability, T/C [25] 23.8% | viability, T/C [26] 27.1% | viability, T/C [27] 12.5% | viability, T/C [28] 9.69%
6.27 µM: IC50 (second compound 1 µM)
< 0.0316 µM: IC50 (second compound 10 µM)
1.65 µM: IC50 (second compound 3.16 µM)
active: viability, T/C [29] 8.26% | viability, T/C [30] 5.32%
6.72 µM: IC50 (second compound 0.316 µM)
6.69 µM: IC50 (second compound 0.1 µM)
